Values of other authors in patent US20120289568A1, “COMBINATIONS OF OXYBUTYNIN AND SALIVARY STIMULANTS FOR THE TREATMENT OF OVERACTIVE BLADDER” (THERAVIDA, INC., priority 2011, published 2012).

Details: 5 mg of pilocarpine

CC[C@@H]1C(=O)OC[C@@H]1Cc1cncn1C [pilocarpine]
time of maximum saliva output after administration: about 30 minutes
